This note sets out measurements from US20130252837A1, “METHOD FOR MEASURING RESISTANCE OR SENSITIVITY TO DOCETAXEL” (Sanofi US, priority 2004, published 2013).

For the assay, the system named is caspase-3. Description: active caspase-3 levels, beadmates kit / Luminex. In kind it is cell-based, human. The settings on record: 40 nM docetaxel, 48 hours, control siRNA cells. The source says: Docetaxel can cause cell death through induction of apoptosis (Kim et al., Int J Mol Med 11:799, 2003). To determine whether Pim-1 and BubR1 siRNAs could modulate a canonical apoptotic pathway in the absence and presence docetaxel, we studied activated caspase-3 levels in HCT116 cells (using a bioplex assay) (FIG. 14).
In an attempt to define the molecular basis for enhanced cell death associated with a Pim-1 knockdown, we examined the activation state of a key cellular pathway involved in cell survival, AKT. HCT116 were seeded at 4×10^5 cells/well on 6-well plates and the next day transfected with siRNAs at 16 nM using Lipofectamine 2000 (Invitrogen). After 24 hours, cells were untreated or treated with 5 and 40 nM docetaxel. Cells were lysed 24, 48 and 72 hours after docetaxel addition with ice-cold lysis buffer (50 mM HEPES buffer (PH7.4), 1% NP40, 2.5 mM EDTA, 100 mM sodium fluoride, 10 mM sodium PPI, protease inhibitor cocktail tablet (Roche), 2 mM sodium orthovanadate) and centrifuged at 12,000 g for 10 minutes. Lysates were then quantified for total protein levels using DC protein assay (BioRad).

On to `CC(=O)O[C@@]12CO[C@@H]1C[C@H](O)[C@@]1(C)C(=O)[C@H](O)C3=C(C)[C@@H](OC(=O)[C@H](O)[C@@H](NC(=O)OC(C)(C)C)c4ccccc4)C[C@@](O)([C@@H](OC(=O)c4ccccc4)[C@H]21)C3(C)C` [docetaxel], for which the “caspase-3 activity in control cells” value is reported as “induced”.
